This is an account of results in patent US12018059B2, “Human amylin analog polypeptides and methods of use” (Intarcia Therapeutics, Inc., priority 2018, dated 2024).

Series [1] has as its target human amylin 3 receptor (hAMY3R) (Homo sapiens, UniProt O60896+P30988). The series can be described thus: cAMP accumulation functional assay in HEK293-CNG cells expressing hAMY3R. The class given is cell-based. How it is done:
(§1) In the presence of the non-specific cAMP/cGMP phosphodiesterase inhibitor 3-isobutyl-1-methylxanthine (IBMX), accumulating cAMP can be measured in vitro using common detection methods. Thus, it is possible to estimate an in vitro potency (pEC50) for peptides activating each of these receptors using fit dose-response curves for cAMP accumulation.
(§2) Cells were carried in growth media for no more than 10 passages prior to testing.
(§3) Peptides were serially diluted in the same buffer as above for each given assay condition. Two assay control solutions consisting of 50 mcM forskolin (cAMP system maximum) or assay buffer only (cAMP system minimum) were also prepared in the appropriate stimulation buffers. Five microliters of each peptide-concentration, or assay control was added to triplicate wells and incubated for thirty minutes at room temperature. During this incubation step a 4× europium labelled cAMP tracer solution and a 4× Ulight®-anti-cAMP solution (consisting of an anti-cAMP monoclonal antibody labelled with Ulight™ dye) was prepared according to the manufacturer's protocol (PerkinElmer LANCE Ultra cAMP kit). Following this incubation, 5 mcL europium labelled cAMP and 5 mcL Ulight anti-cAMP antibody was added to wells. The plate was covered with an adhesive cover to prevent evaporation and incubated for 60 minutes at room temperature in the dark. Plates were read on an Envision fluorescent plate reader (PerkinElmer).
(§4) Test values were first normalized to the forskolin induced cAMP system maximum and system minimum averaged values in Excel using the formula: (test value−system minavg)/(system maxavg−system minavg)*100. Normalized test values represent a baseline corrected percentage of the system maximum cAMP response induced by forskolin. Normalized data was analyzed from triplicate tests and used to estimate the EC50 for each peptide on each receptor. Data was fit in GraphPad Prism software (v7.04) using a 4-parameter logistic curve model: Y=Bottom+(Top−Bottom)/(1+10^((Log EC50−X))). The Hill slope was constrained to 1.0. EC50 values were converted to pEC50 values using the formula: pEC50=−Log (EC50).
Background: Cyclic AMP is a second messenger, typically raised through Gs and lowered through Gi signalling.

Series [2] concerns the target T1, human calcitonin receptor (hCTR) (Homo sapiens, UniProt P30988).
T1 sequence (P30988 25-474): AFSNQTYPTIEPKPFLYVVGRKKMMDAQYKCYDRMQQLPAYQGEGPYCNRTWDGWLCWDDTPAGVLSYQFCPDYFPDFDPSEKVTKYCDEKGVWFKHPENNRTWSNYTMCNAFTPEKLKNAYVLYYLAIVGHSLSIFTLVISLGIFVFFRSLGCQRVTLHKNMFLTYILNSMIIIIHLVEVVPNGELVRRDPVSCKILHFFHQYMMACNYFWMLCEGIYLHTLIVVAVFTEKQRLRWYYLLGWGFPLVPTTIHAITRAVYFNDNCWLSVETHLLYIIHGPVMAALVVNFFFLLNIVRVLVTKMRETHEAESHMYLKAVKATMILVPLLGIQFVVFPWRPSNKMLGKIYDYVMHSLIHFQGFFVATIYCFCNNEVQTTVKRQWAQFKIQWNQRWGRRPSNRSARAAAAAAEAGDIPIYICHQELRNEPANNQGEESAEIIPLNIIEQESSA
As to the kind of experiment: cAMP accumulation functional assay in HEK293-CNG cells expressing hCTR. The class given is cell-based. As for the experimental part: as §1, §2, §3, §4

A further series in a line: in vivo. Also noted: species or system Sprague-Dawley rats. The following applies: rat, iv, 0.033 mg/kg. The procedure, abridged: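 Male Sprague-Dawley rats, non-fasted (n=3), given peptide in saline as 1-h IV or SC infusion at 0.033 mg/kg, or SC bolus at 0.3 mg/kg; jugular blood to 48 h into K2EDTA plus protease inhibitors. Plasma extracted by precipitation or WCX solid-phase extraction, quantified by UPLC-MS/MS against standards in matching rat plasma.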

Series [3] in a line: Acute food intake inhibition after SC bolus injection (BioDAQ). The following applies: Long Evans rats on 45% high fat diet.
Series [4] is described as follows: Solubility of amylin analog polypeptides (visual inspection, room temperature). The format is physicochemical. How it is done:
The analog polypeptides described herein were tested for solubility in saline 20% DMSO in water (i.e., bioassay buffer) or in aqueous (DI water) at room temperature. Samples were visually inspected for clarity of the sample, any appearance of turbidity or haziness.

pEC50: −log10 of the molar value. Values after ≈ are worked out from the molar mass of the structure shown. Read-outs that look alike come from different tables or passages of the source. Starred links: 1 amine or outer side, 2 acyl side, 3 side chain; linkers in the order of their positions; H or OH if unused. Positions of bridges follow the written chain, without caps; N, C: chain ends. Non-standard residues stand in square brackets, D forms with d. Residues, ends and D or L forms follow the SMILES beside them. Groups on a side chain read outwards from the residue. *: point of attachment. X2 = O=C(O)CCCCCCCCCCCCCCCCC(=O)N[C@@H](CCC(=O)NCOCCOCC(=O)NCOCCOCC(=O)*)C(=O)O; γGlu = O=C(O)[C@H](CCC(=O)[*:2])N[*:1]; Palmitoyl = CCCCCCCCCCCCCCCC(=O)*; AEEA = NCCOCCOCC(=O)O

As a reminder, the pEC50 is −log10 of the EC50, conventionally taken in molar units. As a reminder, the Vd is the apparent volume that relates the amount in the body to the concentration in plasma or blood. In general, clearance refers to the volume of plasma or blood freed of the substance per unit of time. Low values mean inefficient removal, high ones efficient removal. What is called half-life is the time needed for the level to fall by half in the phase considered. By solubility is commonly meant the concentration that dissolves in the medium under given conditions.

Sequence of human amylin 3 receptor (hAMY3R) (O60896 24-148, one chain of several): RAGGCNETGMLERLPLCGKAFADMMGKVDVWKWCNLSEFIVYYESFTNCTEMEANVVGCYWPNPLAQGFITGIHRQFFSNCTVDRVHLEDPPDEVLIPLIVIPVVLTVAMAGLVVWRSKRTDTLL

Turning to `CCCCCCCCCCCCCCCC(=O)N[C@@H](CCC(=O)N[C@@H](CCC(=O)N[C@@H](CCC(=O)N[C@@H](CCC(=O)NCCOCCOCC(=O)NCCOCCOCC(=O)N[C@@H](CCC(=O)NCCCC[C@H](NC(=O)[C@H](CCC(=O)O)NC(=O)[C@H](CC(N)=O)NC(=O)[C@H](C)NC(=O)[C@H](CC(C)C)NC(=O)[C@H](CCCNC(=N)N)NC(=O)[C@H](CCC(N)=O)NC(=O)[C@@H](NC(=O)[C@H](C)NC(=O)[C@@H]1CSSC[C@H](NC(=O)[C@@H](N)CO)C(=O)N[C@@H](CC(N)=O)C(=O)N[C@@H]([C@@H](C)O)C(=O)N[C@@H](CO)C(=O)N[C@@H]([C@@H](C)O)C(=O)N1)[C@@H](C)O)C(=O)N[C@@H](Cc1c[nH]cn1)C(=O)N[C@@H](CCCCN)C(=O)N[C@@H](CO)C(=O)N[C@@H](CO)C(=O)N[C@@H](CC(N)=O)C(=O)N[C@@H](CC(N)=O)C(=O)N[C@@H](Cc1ccccc1)C(=O)NCC(=O)N1CCC[C@H]1C(=O)N[C@H](C(=O)N[C@@H](CC(C)C)C(=O)N1CCC[C@H]1C(=O)N1CCC[C@H]1C(=O)N[C@H](C(=O)N[C@@H](CCCCN)C(=O)N[C@H](C(=O)NCC(=O)N[C@@H](CO)C(=O)N[C@@H](CCC(=O)O)C(=O)N[C@H](C(=O)N[C@@H](Cc1ccc(O)cc1)C(N)=O)[C@@H](C)O)C(C)C)[C@@H](C)O)[C@@H](C)CC)C(=O)O)C(=O)O)C(=O)O)C(=O)O)C(=O)O` [Compound A5] (H-SCNTSTCATQRLANEK([γGlu-AEEA-AEEA-γGlu-γGlu-γGlu-γGlu-Palmitoyl])HKSSNNFGPILPPTKVGSETY-NH2; disulfide 2-7; N-terminus assumed), the EC50 was 631 pM in series [1] (4% HSA, read-out: pEC50 hAMY3R 4% HSA (converted)); 15.8 pM in series [2] (hCTR 0% HSA, 0% HSA, read-out: pEC50 hCTR 0% HSA (converted)); 15800 pM in series [2] (hCTR 4% HSA, 4% HSA, read-out: pEC50 hCTR 4% HSA (converted)). Besides, the pEC50 in series [1] (pEC50 hAMY3R 0.1% HSA, 0.1% HSA) was 10.80; in series [2] (hCTR 0.1% HSA, 0.1% HSA), 9.50. This molecule also gave a distribution volume (Vd) in the series “in vivo” of 0.137 L/kg. The clearance in “in vivo” came out at 0.135 mL/min/kg. The molecule further had a half-life in the series “in vivo” of 15 h. For the same molecule, in series [3] (0-24 hr after acute SC dosing), the “Acute Food Intake % Inhibition vs vehicle” value came out at 37%.

With `CCCCCCCCCCCCCCCC(=O)N[C@@H](CCC(=O)N[C@@H](CCC(=O)N[C@@H](CCC(=O)N[C@@H](CCC(=O)NCCCC[C@@H](NC(=O)[C@H](CCC(=O)O)NC(=O)[C@H](CC(N)=O)NC(=O)[C@H](C)NC(=O)[C@H](CC(C)C)NC(=O)[C@H](CCCNC(=N)N)NC(=O)[C@H](CCC(N)=O)NC(=O)[C@@H](NC(=O)[C@H](C)NC(=O)[C@@H]1CSSC[C@H](NC(=O)[C@@H](N)CO)C(=O)N[C@@H](CC(N)=O)C(=O)N[C@@H]([C@@H](C)O)C(=O)N[C@@H](CO)C(=O)N[C@@H]([C@@H](C)O)C(=O)N1)[C@@H](C)O)C(=O)N[C@@H](Cc1c[nH]cn1)C(=O)N[C@@H](CCCCN)C(=O)N[C@@H](CO)C(=O)N[C@@H](CO)C(=O)N[C@@H](CC(N)=O)C(=O)N[C@@H](CC(N)=O)C(=O)N[C@@H](Cc1ccccc1)C(=O)NCC(=O)N1CCC[C@H]1C(=O)N[C@H](C(=O)N[C@@H](CC(C)C)C(=O)N1CCC[C@H]1C(=O)N1CCC[C@H]1C(=O)N[C@H](C(=O)N[C@@H](CCCCN)C(=O)N[C@H](C(=O)NCC(=O)N[C@@H](CO)C(=O)N[C@@H](CCC(=O)O)C(=O)N[C@H](C(=O)N[C@@H](Cc1ccc(O)cc1)C(N)=O)[C@@H](C)O)C(C)C)[C@@H](C)O)[C@@H](C)CC)C(=O)O)C(=O)O)C(=O)O)C(=O)O` [Compound A66] (H-SCNTSTCATQRLANE[dK]([γGlu-γGlu-γGlu-γGlu-Palmitoyl])HKSSNNFGPILPPTKVGSETY-NH2; disulfide 2-7), the concentration in solution in series [4] (Solubility) (solubility) came to 78.3 mg/mL (≈ 16.5 mM). In “in vivo”, this molecule gave a volume of distribution (Vd) of 0.194 L/kg, a clearance of 0.259 mL/min/kg and a half-life of 9.59 h.

Turning to `CCCCCCCCCCCCCCCC(=O)N[C@@H](CCC(=O)N[C@@H](CCC(=O)N[C@@H](CCC(=O)NCCCC[C@@H](NC(=O)[C@H](CCC(=O)O)NC(=O)[C@H](CC(N)=O)NC(=O)[C@H](C)NC(=O)[C@H](CC(C)C)NC(=O)[C@H](CCCNC(=N)N)NC(=O)[C@H](CCC(N)=O)NC(=O)[C@@H](NC(=O)[C@H](C)NC(=O)[C@@H]1CSSC[C@H](NC(=O)[C@@H](N)CO)C(=O)N[C@@H](CC(N)=O)C(=O)N[C@@H]([C@@H](C)O)C(=O)N[C@@H](CO)C(=O)N[C@@H]([C@@H](C)O)C(=O)N1)[C@@H](C)O)C(=O)N[C@@H](Cc1c[nH]cn1)C(=O)N[C@@H](CCCCN)C(=O)N[C@@H](CO)C(=O)N[C@@H](CO)C(=O)N[C@@H](CC(N)=O)C(=O)N[C@@H](CC(N)=O)C(=O)N[C@@H](Cc1ccccc1)C(=O)NCC(=O)N1CCC[C@H]1C(=O)N[C@H](C(=O)N[C@@H](CC(C)C)C(=O)N1CCC[C@H]1C(=O)N1CCC[C@H]1C(=O)N[C@H](C(=O)N[C@@H](CCCCN)C(=O)N[C@H](C(=O)NCC(=O)N[C@@H](CO)C(=O)N[C@@H](CC(N)=O)C(=O)N[C@H](C(=O)N[C@@H](Cc1ccc(O)cc1)C(N)=O)[C@@H](C)O)C(C)C)[C@@H](C)O)[C@@H](C)CC)C(=O)O)C(=O)O)C(=O)O` [Compound A67] (H-SCNTSTCATQRLANE[dK]([γGlu-γGlu-γGlu-Palmitoyl])HKSSNNFGPILPPTKVGSNTY-NH2; disulfide 2-7), in series [4] (TFA salt, DI H2O, room temperature, read-out: Solubility), the solubility turned out to be 70.6 mg/mL. In the series “in vivo”, this molecule showed a Vd of 0.198 L/kg, a clearance of 0.357 mL/min/kg and a half-life of 7.14 h.

In the series “in vivo”, `CC[C@H](C)[C@H](NC(=O)[C@@H]1CCCN1C(=O)CNC(=O)[C@H](Cc1ccccc1)NC(=O)[C@H](CC(N)=O)NC(=O)[C@H](CC(N)=O)NC(=O)[C@H](CO)NC(=O)[C@H](CO)NC(=O)[C@H](CCCCN)NC(=O)[C@H](Cc1c[nH]cn1)NC(=O)[C@H](CC(C)C)NC(=O)[C@H](CCCCNC(=O)COCCOCNC(=O)COCCOCNC(=O)CC[C@H](NC(=O)CCCCCCCCCCCCCCCCC(=O)O)C(=O)O)NC(=O)[C@H](CC(N)=O)NC(=O)[C@H](C)NC(=O)[C@H](CC(C)C)NC(=O)[C@H](CCCNC(=N)N)NC(=O)[C@H](CCC(N)=O)NC(=O)[C@@H](NC(=O)[C@H](C)NC(=O)[C@@H]1CSSC[C@H](NC(=O)[C@@H](N)CO)C(=O)N[C@@H](CC(N)=O)C(=O)N[C@@H]([C@@H](C)O)C(=O)N[C@@H](CO)C(=O)N[C@@H]([C@@H](C)O)C(=O)N1)[C@@H](C)O)C(=O)N[C@@H](CC(C)C)C(=O)N1CCC[C@H]1C(=O)N1CCC[C@H]1C(=O)N[C@H](C(=O)N[C@@H](CCCCN)C(=O)N[C@H](C(=O)NCC(=O)N[C@@H](CO)C(=O)N[C@@H](CCC(=O)O)C(=O)N[C@H](C(=O)N[C@@H](Cc1ccc(O)cc1)C(N)=O)[C@@H](C)O)C(C)C)[C@@H](C)O` [Compound A98] (H-SCNTSTCATQRLANK(X2)LHKSSNNFGPILPPTKVGSETY-NH2; disulfide 2-7; N-terminus assumed) gave a Vd of 0.159 L/kg, a clearance of 0.119 mL/min/kg and a half-life of 17.4 h. For the same molecule, the “Acute Food Intake % Inhibition vs vehicle” value in series [3] (0-24 hr after acute SC dosing) is recorded as 23%. Moreover, the “Acute Food Intake % Inhibition vs vehicle” value in series [3] (25-48 hr after acute SC dosing) is listed as 24%.
